{
  "source": "patent US8445409B2",
  "about": "“Use of 5-benzyloxymethyl-1,2-isoxazoline derivatives as a herbicide” (Moghu Research Center Ltd., priority 2007, dated 2013)",
  "key": {"Morningglory": {"tested_on": "Morningglory", "test": "Upland pot test, pre-/post-emergence spray, visual rating", "type": "in vivo, morningglory (IPOSP)", "conditions": "2 weeks after spray, 0-10 scale (10=completely killed)", "source_text": "To a rectangular plastic pot having a surface area of 300 cm^2, mixed soils including blend bed soil (Boonong, Horticultural Bed Soil No. 3) and sandy loam soil were filled (mixing ratio, 1:1). Seeds of the eight different types of weeds including gramineous weed such as barnyardgrass, large crabgrass, green foxtail, fall panicum, and broadleaf weed such as common cocklebur, velvetleaf, Indian joint-vetch, and morningglory were sown. To the other pot containing the same soil mixture, seeds of the five different types of crops including corn, soybean, cotton, wheat and rice were sown. Pots were kept in a greenhouse of which temperature was maintained at 25˜30° C. (day) or 15˜25° C. (night), and regularly watered.\nAfter fourteen days and when the crops and the weeds reached their three-leaf stage, the other set of a crop pot and a weed pot were prepared by the same method as described above. Then, “test substance” was sprayed thereto. In this case, spray treatment to the plants after they have grown for two weeks corresponded to post-emergence treatment while spray treatment to the seeds right after the sowing corresponded to pre-emergence treatment. Spray was carried out by using a track sprayer (R&D Sprayer, USA) equipped with a Teejet 8002 nozzle (Spraying Systems Co., USA). Spray volume was adjusted to 300 L/ha. The spray solution was prepared by dissolving the “test substance” in acetone and adding the same volume of 0.2% (v/v) Tween 20 aqueous solution. Dosage of the test substance was 500, 250, 125, 62.5 or 31.3 g/ha. Two weeks after the spray of the test substance, efficacy and phytotoxic effect to the crops and the weeds were visually measured based on a 0 to 10 scale (0: no efficacy, 10: completely killed)."}, "Large crabgrass": {"tested_on": "Large crabgrass", "test": "Herbicidal activity at different growth stages, fresh weight suppression", "type": "in vivo", "conditions": "for Suppression ratio relative to the biomass of the untreated group: Large crabgrass 1 leaf / Suppression ratio relative to the biomass of the untreated group: Large crabgrass 2 leaf / Suppression ratio relative to the biomass of the untreated group: Large crabgrass 3 leaf / Suppression ratio relative to the biomass of the untreated group: Large crabgrass 4 leaf / Suppression ratio relative to the biomass of the untreated group: Large crabgrass PRE: fresh weight two weeks after treatment", "protocol": "To a cup pot having a surface area of 100 cm^2 wherein mixed soils including blend bed soil (Boonong, Horticultural Bed Soil No. 3) and sandy loam soil were filled (mixing ratio, 1:1), seeds of large crabgrass and annual bluegrass were sown consecutively at an one week interval. The pots were moistened by sub-irrigation, and kept in a greenhouse maintained at 25˜30° C. (day) or 15˜25° C. (night). The said weeds were grown to various growth stages from pre-emergence to the four-leaf stage. Then, they were applied with the test substance of the present invention at dosage of 2, 1, 0.5, or 0.25 kg/ha. As a reference herbicide, Dithiopyr (32% EC, manufactured by Dongbu Hannong Chemical Company), was applied at 0.96, 0.48, or 0.24 kg/ha. Spray volume was adjusted to 2,000 L/ha. The method to spray of the test substance and prepare spray solutions were the same as described above. The reference herbicide was used after it was diluted with 0.2% (v/v) Tween 20 aqueous solution. The test was conducted in a randomized block design with three replicates. Two weeks after the treatment, plant parts remained above the pot soil surface were cut and the fresh weight was weighed. Results are given by a suppression ratio relative to the biomass that was obtained from the untreated group (see, Table 3)."}},
  "data": [
    {"smiles": "Cc1ccsc1C1=NOC(C)(COCc2c(F)cccc2F)C1", "note": "(centres unmarked) [test substance, 5-(2,6-difluorobenzyl)oxymethyl-5-methyl-3-(4-methylthiophen-5-yl)-1,2-isoxazoline]", "values": [
      {"measurement": "Visual measurement: Broadleaf weed, Morningglory", "setting": "Morningglory; post-emergence foliar spray at three leaf stage, 31.2 g/ha", "result": 0},
      {"measurement": "Visual measurement: Broadleaf weed, Morningglory", "setting": "Morningglory; post-emergence foliar spray at three leaf stage, 62.5 g/ha", "result": 0},
      {"measurement": "Visual measurement: Broadleaf weed, Morningglory", "setting": "Morningglory; post-emergence foliar spray at three leaf stage, 125 g/ha", "result": 0},
      {"measurement": "Visual measurement: Broadleaf weed, Morningglory", "setting": "Morningglory; post-emergence foliar spray at three leaf stage, 250 g/ha", "result": 1},
      {"measurement": "Visual measurement: Broadleaf weed, Morningglory", "setting": "Morningglory; post-emergence foliar spray at three leaf stage, 500 g/ha", "result": 3},
      {"measurement": "Visual measurement: Broadleaf weed, Morningglory", "setting": "Morningglory; pre-emergence soil treatment, 31.2 g/ha", "result": 0},
      {"measurement": "Visual measurement: Broadleaf weed, Morningglory", "setting": "Morningglory; pre-emergence soil treatment, 62.5 g/ha", "result": 0},
      {"measurement": "Visual measurement: Broadleaf weed, Morningglory", "setting": "Morningglory; pre-emergence soil treatment, 125 g/ha", "result": 1},
      {"measurement": "Visual measurement: Broadleaf weed, Morningglory", "setting": "Morningglory; pre-emergence soil treatment, 250 g/ha", "result": 2},
      {"measurement": "Visual measurement: Broadleaf weed, Morningglory", "setting": "Morningglory; pre-emergence soil treatment, 500 g/ha", "result": 2},
      {"measurement": "Suppression ratio relative to the biomass of the untreated group: Large crabgrass 1 leaf", "setting": "Large crabgrass; 1 kg/ha", "result": 100, "unit": "%"},
      {"measurement": "Suppression ratio relative to the biomass of the untreated group: Large crabgrass 2 leaf", "setting": "Large crabgrass; 1 kg/ha", "result": 98, "unit": "%"},
      {"measurement": "Suppression ratio relative to the biomass of the untreated group: Large crabgrass 3 leaf", "setting": "Large crabgrass; 1 kg/ha", "result": 94, "unit": "%"},
      {"measurement": "Suppression ratio relative to the biomass of the untreated group: Large crabgrass 4 leaf", "setting": "Large crabgrass; 1 kg/ha", "result": 70, "unit": "%"},
      {"measurement": "Suppression ratio relative to the biomass of the untreated group: Large crabgrass PRE", "setting": "Large crabgrass; 1 kg/ha", "result": 100, "unit": "%"},
      {"measurement": "Suppression ratio relative to the biomass of the untreated group: Large crabgrass 1 leaf", "setting": "Large crabgrass; 2 kg/ha", "result": 100, "unit": "%"},
      {"measurement": "Suppression ratio relative to the biomass of the untreated group: Large crabgrass 2 leaf", "setting": "Large crabgrass; 2 kg/ha", "result": 98, "unit": "%"},
      {"measurement": "Suppression ratio relative to the biomass of the untreated group: Large crabgrass 3 leaf", "setting": "Large crabgrass; 2 kg/ha", "result": 97, "unit": "%"},
      {"measurement": "Suppression ratio relative to the biomass of the untreated group: Large crabgrass 4 leaf", "setting": "Large crabgrass; 2 kg/ha", "result": 76, "unit": "%"},
      {"measurement": "Suppression ratio relative to the biomass of the untreated group: Large crabgrass PRE", "setting": "Large crabgrass; 2 kg/ha", "result": 100, "unit": "%"},
      {"measurement": "Suppression of large crabgrass", "setting": "Large crabgrass; 3-leaf stage, 1 kg/ha or more", "result": "≥ 90", "unit": "%"},
      {"measurement": "Suppression ratio relative to the biomass of the untreated group: Large crabgrass 2 leaf", "setting": "Large crabgrass; .12 kg/ha", "result": 45, "unit": "%"},
      {"measurement": "Suppression ratio relative to the biomass of the untreated group: Large crabgrass 4 leaf", "setting": "Large crabgrass; .12 kg/ha", "result": 16, "unit": "%"},
      {"measurement": "Suppression ratio relative to the biomass of the untreated group: Large crabgrass 1 leaf", "setting": "Large crabgrass; .25 kg/ha", "result": 100, "unit": "%"},
      {"measurement": "Suppression ratio relative to the biomass of the untreated group: Large crabgrass 2 leaf", "setting": "Large crabgrass; .25 kg/ha", "result": 81, "unit": "%"},
      {"measurement": "Suppression ratio relative to the biomass of the untreated group: Large crabgrass 3 leaf", "setting": "Large crabgrass; .25 kg/ha", "result": 72, "unit": "%"},
      {"measurement": "Suppression ratio relative to the biomass of the untreated group: Large crabgrass 4 leaf", "setting": "Large crabgrass; .25 kg/ha", "result": 33, "unit": "%"},
      {"measurement": "Suppression ratio relative to the biomass of the untreated group: Large crabgrass PRE", "setting": "Large crabgrass; .25 kg/ha", "result": 100, "unit": "%"},
      {"measurement": "Suppression ratio relative to the biomass of the untreated group: Large crabgrass 1 leaf", "setting": "Large crabgrass; .5 kg/ha", "result": 100, "unit": "%"},
      {"measurement": "Suppression ratio relative to the biomass of the untreated group: Large crabgrass 2 leaf", "setting": "Large crabgrass; .5 kg/ha", "result": 93, "unit": "%"},
      {"measurement": "Suppression ratio relative to the biomass of the untreated group: Large crabgrass 3 leaf", "setting": "Large crabgrass; .5 kg/ha", "result": 86, "unit": "%"},
      {"measurement": "Suppression ratio relative to the biomass of the untreated group: Large crabgrass 4 leaf", "setting": "Large crabgrass; .5 kg/ha", "result": 65, "unit": "%"},
      {"measurement": "Suppression ratio relative to the biomass of the untreated group: Large crabgrass PRE", "setting": "Large crabgrass; .5 kg/ha", "result": 100, "unit": "%"},
      {"measurement": "Suppression of large crabgrass", "setting": "Large crabgrass; PRE to 2-leaf stage, 0.5 kg/ha or above", "result": "≥ 90", "unit": "%"},
      {"measurement": "Control of large crabgrass (in words)", "setting": "Large crabgrass; over four-leaf stage", "result": "suppressed but were not completely controlled"}
    ]}
  ]
}
